Experimental data taken from patent US20070292888A1, “Methods for Measuring Enzyme Activities in Cells, Blood, Tumors and Tissues” (GEN-PATH PHARMACEUTICALS, INC., priority 2004, published 2007).

Target: T1, kGDH (Homo sapiens, UniProt Q02218)
T1 construct: Log-phase growing cells were trypsinized and resuspended in TDM; endogenous in cells
T1 sequence (Q02218 41-1023): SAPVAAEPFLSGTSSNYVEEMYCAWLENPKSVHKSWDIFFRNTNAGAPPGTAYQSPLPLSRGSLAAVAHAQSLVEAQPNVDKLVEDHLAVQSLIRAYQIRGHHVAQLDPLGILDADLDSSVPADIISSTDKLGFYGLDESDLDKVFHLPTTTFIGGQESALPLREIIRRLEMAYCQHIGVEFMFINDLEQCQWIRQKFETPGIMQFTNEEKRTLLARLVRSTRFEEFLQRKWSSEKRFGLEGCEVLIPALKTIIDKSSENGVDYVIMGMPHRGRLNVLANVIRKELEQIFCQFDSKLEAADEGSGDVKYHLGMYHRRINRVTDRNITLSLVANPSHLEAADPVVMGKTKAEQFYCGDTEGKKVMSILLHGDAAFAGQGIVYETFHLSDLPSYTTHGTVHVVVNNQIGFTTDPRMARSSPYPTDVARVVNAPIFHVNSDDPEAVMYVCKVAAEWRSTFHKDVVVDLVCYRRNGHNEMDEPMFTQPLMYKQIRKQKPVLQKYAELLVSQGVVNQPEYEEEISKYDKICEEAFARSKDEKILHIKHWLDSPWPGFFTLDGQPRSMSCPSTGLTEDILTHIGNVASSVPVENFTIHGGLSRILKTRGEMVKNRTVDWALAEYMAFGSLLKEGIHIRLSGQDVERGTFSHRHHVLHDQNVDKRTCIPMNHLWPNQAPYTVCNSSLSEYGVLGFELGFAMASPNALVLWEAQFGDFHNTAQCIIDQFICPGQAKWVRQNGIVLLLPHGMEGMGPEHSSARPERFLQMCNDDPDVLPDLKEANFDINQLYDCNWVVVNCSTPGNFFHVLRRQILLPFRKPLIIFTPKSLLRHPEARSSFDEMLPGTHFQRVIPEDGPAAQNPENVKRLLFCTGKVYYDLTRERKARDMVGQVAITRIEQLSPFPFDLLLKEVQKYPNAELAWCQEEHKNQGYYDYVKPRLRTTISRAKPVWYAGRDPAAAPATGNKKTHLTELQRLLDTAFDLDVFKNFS
T1 sequence (P36957 68-453 partner): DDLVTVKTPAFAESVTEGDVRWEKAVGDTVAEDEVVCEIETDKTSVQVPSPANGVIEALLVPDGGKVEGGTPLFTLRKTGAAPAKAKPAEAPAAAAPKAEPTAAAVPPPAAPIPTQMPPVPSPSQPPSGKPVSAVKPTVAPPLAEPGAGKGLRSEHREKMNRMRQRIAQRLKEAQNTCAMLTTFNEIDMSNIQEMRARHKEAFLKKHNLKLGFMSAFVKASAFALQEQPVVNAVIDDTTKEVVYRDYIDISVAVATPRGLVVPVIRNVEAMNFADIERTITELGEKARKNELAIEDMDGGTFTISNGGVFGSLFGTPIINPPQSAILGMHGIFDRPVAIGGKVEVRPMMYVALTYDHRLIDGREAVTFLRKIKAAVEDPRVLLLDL
T1 sequence (P09622 36-509 partner): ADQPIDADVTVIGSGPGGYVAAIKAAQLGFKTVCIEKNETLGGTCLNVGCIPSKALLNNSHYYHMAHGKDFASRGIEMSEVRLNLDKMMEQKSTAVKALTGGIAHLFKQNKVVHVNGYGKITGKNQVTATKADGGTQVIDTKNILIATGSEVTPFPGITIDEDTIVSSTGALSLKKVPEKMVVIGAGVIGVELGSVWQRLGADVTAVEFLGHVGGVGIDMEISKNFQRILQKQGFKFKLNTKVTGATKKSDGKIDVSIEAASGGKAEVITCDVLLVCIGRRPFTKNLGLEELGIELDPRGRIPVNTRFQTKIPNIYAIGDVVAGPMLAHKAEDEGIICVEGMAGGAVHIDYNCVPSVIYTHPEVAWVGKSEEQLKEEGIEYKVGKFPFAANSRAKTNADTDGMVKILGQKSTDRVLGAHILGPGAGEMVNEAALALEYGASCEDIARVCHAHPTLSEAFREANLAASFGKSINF
Assay: Cell-based kGDH inhibition in thiamine-depleted media, 96-well format
Conditions: treated cells, 48 hours treatment
Procedure: We determined the IC50 of compounds that inhibit the activity of the TPP utilizing enzymes TK, kGDH and PDH in a convenient 96-well format using an optimized version of the method described in the previous Examples.
The high thiamine levels in conventional cell culture media (e.g., DMEM (12 μM), RPMI (3 μM)) masks the inhibitory effect of such inhibitors. To measure the IC50 of such inhibitors, thus, a thiamine depleted DMEM, containing all the ingredients of normal DMEM except for thiamine (HyClone, custom order), was used. Thiamine-depleted media (TDM) is made up with thiamine-depleted DMEM, 10% FBS, which contains negligible amount of thiamine (estimated to be ˜3-5% nM) and 1% Penicillin-streptomycin.
Log-phase growing cells were trypsinized and resuspended in TDM. Optimization of the initial cell counts is recommended for each cell line to ensure that enzyme activity can be observed at the beginning and that healthy growth can continue. For cell lines that have a doubling time of approximately 24 hours and cellular transketolase levels high enough to be reliably detected with five thousand (5K) cells such as HCT116 and HT1080, 8K cells are recommended.
Media containing 8K cells (95 μl) were used to seed individual wells in a 96-well clear-bottom cell cultured treated sterile plate. […] Enzymatic inhibition was expressed as percent of control wells that were not treated with compounds. […]

IC50: 86 nM
Compound: Cc1ccc(C[n+]2csc(CCO)c2C)c(N)n1 [N3PT, 3-[(2-amino-6-methyl-3-pyridinyl)methyl]-5-(2-hydroxyethyl)-4-methyl thiazolium]
